Blank lines part the entries; values can stand above or below the compound they belong to.
Structure (SMILES): COc1cc(-c2ccccc2)c(C)cc1N
melting point: 65 to 67 °C

Structure (SMILES): c1coc(C2CNCCN2)c1 (stereo not drawn)
melting point: 87 °C

Structure (SMILES): O=C(CN1CCNCC1)N1CCCC1
melting point: 75 to 76 °C

Structure (SMILES): CC1=C(C(=O)OC(C)(C)C)C(c2ccc3c(c2)OCO3)NC(=O)N1 (stereo not drawn)
melting point: 210 °C

Structure (SMILES): CC1(C)C(O)C(C)(C)C1O (stereo not drawn)
melting point: 126 to 134 °C

Structure (SMILES): CCN(CC)c1ccc(C(c2ccc(N(CC)CC)cc2C)c2ccc(N(CC)CC)cc2C)c(C)c1
melting point: 163 to 165 °C

Structure (SMILES): O=C(c1ccccc1)c1cccnc1
melting point: 38 °C

Structure (SMILES): Cn1c(C(F)(F)F)n[nH]c1=S
melting point: 116 to 118 °C

Structure (SMILES): Cc1oc(-c2ccccc2)cc1-c1ccccc1
melting point: 44 °C

Structure (SMILES): COC1CCC=CO1 (stereo not drawn)
melting point: 16 °C

Structure (SMILES): O=C(c1ccccc1)c1cccc([N+](=O)[O-])c1
melting point: 92 to 94 °C

Structure (SMILES): CCc1ccccc1C(=O)N(NC(=O)c1ccccc1)C(C)(C)C
melting point: 178 °C

Structure (SMILES): O=C(Nc1ccc(Br)cc1)C(C(F)(F)F)C(F)(F)F
melting point: 186 °C

Structure (SMILES): COc1ccc(C=O)c(OC)c1OC
melting point: 40 °C

Structure (SMILES): N#Cc1cc(F)c(F)cc1Cl
melting point: 35 °C

Structure (SMILES): Nc1ncccc1Cl
melting point: 61 °C

Structure (SMILES): COCCl
melting point: -104 °C

Structure (SMILES): Cc1ccc(S(=O)(=O)OCC2CO2)cc1 (stereo not drawn)
melting point: 45 to 48 °C

Structure (SMILES): OCc1cccc(-c2ccccc2)c1
melting point: 55 °C

Structure (SMILES): OOC1CCCc2ccccc21 (stereo not drawn)
melting point: 56 °C

Structure (SMILES): CCN(C(=O)n1nnn(-c2ccccc2Cl)c1=O)C1CCCCC1
melting point: 79 °C

Structure (SMILES): O=[N+]([O-])c1ccc(-c2nnc3n2CN(c2ccccc2[N+](=O)[O-])CS3)cc1
melting point: 183 to 185 °C

Structure (SMILES): CCCOC(=O)C1=C(C)NC(=O)NC1c1ccccc1 (stereo not drawn)
melting point: 176 °C

Structure (SMILES): Cc1cc(C)c(Cl)c(O)c1Cl
melting point: 87.5 °C

Structure (SMILES): O=C(CI)c1ccccc1
melting point: 34.4 °C

Structure (SMILES): Brc1sc(-c2ccccc2)nc1-c1ccccc1
melting point: 88 to 89 °C

Structure (SMILES): NNC(=O)c1cnn(-c2ccccc2)c1C(F)(F)F
melting point: 153 to 155 °C

Structure (SMILES): CCCCOCCOCCOC(=O)CCCCC(=O)OCCOCCOCCCC
melting point: -47 °C

Structure (SMILES): Nc1ccn(C2CCC(CO)O2)c(=O)n1 (stereo not drawn)
melting point: 218 °C

Structure (SMILES): O=[N+]([O-])c1cc[nH]n1
melting point: 173 to 175 °C

Structure (SMILES): O=C(O)c1cnc2ccccn12
melting point: 196 to 197 °C

Structure (SMILES): COc1ccc(C(=O)Nc2ccc(-c3ccc4nn(-c5ccccc5)nc4c3)cc2)cc1
melting point: 240 to 243 °C

Structure (SMILES): COc1ccc[nH]c1=O
melting point: 115 °C

Structure (SMILES): Cc1ccc(C2NC(=O)NC(c3ccc(C)cc3)C2(C#N)C(=O)c2ccccc2)cc1 (stereo not drawn)
melting point: 234 to 235 °C

Structure (SMILES): O=Cc1ccc(-c2ccc(C(=O)O)cc2)cc1
melting point: 150 °C

Structure (SMILES): C=CCOC(Cn1ccnc1)c1ccc(Cl)cc1Cl (stereo not drawn)
melting point: 52.7 °C

Structure (SMILES): CCOC(=O)c1cc(-c2ccccc2)n(-c2ccccc2)c1C
melting point: 97 °C

Structure (SMILES): N#C/C(=C\c1ccc(F)cc1)c1nc2ccccc2c(=O)[nH]1
melting point: 305 to 306 °C

Structure (SMILES): Nc1ccc(S(=O)(=O)c2ccc([N+](=O)[O-])cc2)cc1
melting point: 170 °C

Structure (SMILES): CCc1cc(C(F)(F)F)c2c([nH]c3ccccc32)c1CO
melting point: 150 to 153 °C

Structure (SMILES): O=C(Nc1nnc(-c2ccc(Cl)cc2)o1)c1ccc(Cl)cc1Cl
melting point: 212 to 213 °C

Structure (SMILES): CC(=O)c1ccc(NC(N)=S)cc1
melting point: 215 °C

Structure (SMILES): O=[N+]([O-])c1ccc2c(c1)OCO2
melting point: 145 to 149 °C

Structure (SMILES): NCCc1c[nH]cn1
melting point: 86 °C

Structure (SMILES): FC(F)C(F)(F)OCC(Cn1cncn1)c1ccc(Cl)cc1Cl (stereo not drawn)
melting point: 6 °C

Structure (SMILES): O=[N+]([O-])c1cccnc1N1CCOCC1
melting point: 89 to 91 °C

Structure (SMILES): O=C(O)c1ccnc(N2CCOCC2)c1
melting point: 180 °C

Structure (SMILES): Brc1ccc(Oc2cc(Br)ccc2Br)c(Br)c1
melting point: < 20 °C

Structure (SMILES): CCOC(=O)/C(C(N)=S)=C1/NN=C(c2ccccc2O)O1
melting point: 128 °C

Structure (SMILES): Cc1cccc(C)c1NC(=O)c1cnc(C(C)(C)C)c(Cl)n1
melting point: 146 °C

Structure (SMILES): O=C(O)c1ccc(-c2ccc([N+](=O)[O-])cc2)o1
melting point: 255 to 257 °C

Structure (SMILES): COc1cc(N)c2ncccc2c1
melting point: 52 °C

Structure (SMILES): CCN(CC)CCOc1ccc(C(O)(Cc2ccc(Cl)cc2)c2ccc(C)cc2)cc1 (stereo not drawn)
melting point: 103 °C

Continued, values first:

melting point: 98 to 100 °C
Structure (SMILES): CC(C)(C=NO)NO

melting point: 194 to 195 °C
Structure (SMILES): COC1(C)OC(CNc2ccc(S(C)(=O)=O)cc2)C(CNc2ccc(S(C)(=O)=O)cc2)OC1(C)OC (stereo not drawn)

melting point: 85 to 87 °C
Structure (SMILES): CC(=O)/C(=N\Nc1cccc(C(F)(F)F)c1)C(=O)C(F)(F)F

melting point: 222 to 228 °C
Structure (SMILES): COc1cc2c(cc1OC)Cc1cc(OC)c(OC)cc1Cc1cc(OC)c(OC)cc1C2

melting point: -35 °C
Structure (SMILES): CCCCCC=CCC=CCCCCCCCC(=O)OC

melting point: 52 to 54 °C
Structure (SMILES): C(=NCCN=Cc1ccccc1)c1ccccc1

melting point: 161 °C
Structure (SMILES): CC(C)(C)c1cc(C(=O)O)cc(C(C)(C)C)c1

melting point: 72 to 74 °C
Structure (SMILES): Brc1ccc2nonc2c1

melting point: 178 to 184 °C
Structure (SMILES): CC(CO)C1CCC2C3CCC4=CC(=O)C=CC4(C)C3CCC12C (stereo not drawn)

melting point: 175 °C
Structure (SMILES): CCCCC(/C=C1\C(=O)C2(C)CCC1C2(C)C)(/C=C1\C(=O)C2(C)CCC1C2(C)C)C(=O)OCC (stereo not drawn)

melting point: 68 to 70 °C
Structure (SMILES): CC(=O)c1ccc(CCc2ccccc2)cc1

melting point: 93 °C
Structure (SMILES): COc1cc(C)cc2c1C(=O)C2

melting point: -74.1 °C
Structure (SMILES): CCCCC#CCCCCC

melting point: 80.5 °C
Structure (SMILES): CC1=C(O)C(=O)C(C)O1 (stereo not drawn)

melting point: 154 °C
Structure (SMILES): CC1CCC(C)(C(=O)CCOC(=S)Nc2ccccc2)C1(C)C (stereo not drawn)

melting point: 265 °C
Structure (SMILES): Cc1ccnc2c1NC(=O)c1cccnc1N2C1CC1

melting point: 38 °C
Structure (SMILES): N#Cc1ccc(C(F)(F)F)cc1

melting point: 32 °C
Structure (SMILES): Cc1cc(O)ccc1F

melting point: 143 °C
Structure (SMILES): O=C(O)C=Cc1ccc(F)c(C(F)(F)F)c1

melting point: 119 °C
Structure (SMILES): Cc1ccccc1C(=O)Cc1ccccc1C(=O)N(C)c1ccccc1

melting point: 62.5 °C
Structure (SMILES): CCCC(C)(CO)CO

melting point: 75 °C
Structure (SMILES): Clc1ccc(CSc2ccc(Cl)cc2)cc1

melting point: 123 °C
Structure (SMILES): CN(C)c1nnc(Br)c(-c2nc(N(C)C)nnc2Br)n1

melting point: 105 °C
Structure (SMILES): CCn1ccc2ccccc21

melting point: 124 to 130 °C
Structure (SMILES): Oc1ccc2cc[nH]c2c1

melting point: 338 °C
Structure (SMILES): O=c1cc[nH]c(=O)[nH]1

melting point: 248 to 249 °C
Structure (SMILES): O=C(O)c1cn2nc(Cl)ccc2n1

melting point: 26 to 32 °C
Structure (SMILES): BrCC=Cc1ccccc1

melting point: -8 °C
Structure (SMILES): C1=Cc2ccccc2CC1

melting point: 39 °C
Structure (SMILES): COc1cc(C)cc(OC)c1O

melting point: 271 to 272 °C
Structure (SMILES): Cn1c(=S)[nH]c2ccccc2c1=O

melting point: 118 to 119 °C
Structure (SMILES): CC(C)(C)OC(=O)N1CCN(c2ccc(C=O)cc2)CC1

melting point: 144 °C
Structure (SMILES): O=C(O)CP(=O)(O)O

melting point: 146 to 148 °C
Structure (SMILES): N#Cc1c(F)cccc1OCc1ccc(Cl)cc1

melting point: 61 °C
Structure (SMILES): COc1cc(F)ccc1C=O

melting point: 49 to 52 °C
Structure (SMILES): O=C(O)CSCCOc1ccccc1

melting point: 62 to 64 °C
Structure (SMILES): Clc1cc(-c2ccccc2)nc2ccccc12

melting point: 114 to 116 °C
Structure (SMILES): Nc1cccnc1N

melting point: 160 °C
Structure (SMILES): COc1ccc2c(c1OC)CN(C)CCc1cc3c(cc1C(=O)C2)OCO3

melting point: 144 °C
Structure (SMILES): CCC(C(=O)Nc1ccc(C)cc1)C1CCC(OC)CC1 (stereo not drawn)

Source: a melting point compilation (Tetko et al.)
